In the assay the target is T1, Eg5 (human Kinesin-5) (Homo sapiens, UniProt P52732).
T1 construct: gene KIF11; motor domain (residues 1–369); with microtubules (bovine brain tubulin)
T1 sequence (P52732 1-369): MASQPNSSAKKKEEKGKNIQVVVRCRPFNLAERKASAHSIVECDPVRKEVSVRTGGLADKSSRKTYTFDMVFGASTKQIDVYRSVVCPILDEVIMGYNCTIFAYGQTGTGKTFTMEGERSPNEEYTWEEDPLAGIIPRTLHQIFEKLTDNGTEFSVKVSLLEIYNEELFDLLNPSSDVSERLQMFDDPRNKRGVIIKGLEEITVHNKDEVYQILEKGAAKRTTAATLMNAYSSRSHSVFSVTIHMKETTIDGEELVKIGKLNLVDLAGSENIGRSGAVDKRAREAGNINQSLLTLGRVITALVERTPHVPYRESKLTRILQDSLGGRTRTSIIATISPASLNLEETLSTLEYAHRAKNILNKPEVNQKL
In words: microtubule depolymerization turbidity assay with purified Eg5 motor domain, single concentration […] AMPPNP. Type of assay: biochemical.

The structures appear in SMILES notation.

For `Nc1ncnc2c1ncn2[C@@H]1O[C@H](CO[P@](=O)(O)O[P@](=O)(O)NP(=O)(O)O)[C@@H](O)[C@H]1O` [AMP, AMPPNP], the “microtubule depolymerization turbidity assay with purified Eg5 motor domain, sin” value was “treatment with excess orthosteric inhibitor, AMPPNP, completely inhibited its microtubule depolymerization ability”.
